Reference: patent US20110110918A1, “ROLE OF (DE)ACETYLATION IN COUNTERACTING PROTEIN AGGREGATION” (Rijksuniversiteit Groningen, priority 2008, published 2011)
Entries after “also recorded” stand apart in the source; their conditions may differ.

B1: wild type DnaJB8: member of the Hsp40 family, chaperone counteracting protein aggregation; V5-tagged, tet-inducible overexpression (protein, UniProt Q8NHS0 1-232, looked up)
DnaJ homolog subfamily B …: MANYYEVLGVQASASPEDIKKAYRKLALRWHPDKNPDNKEEAEKKFKLVSEAYEVLSDSKKRSLYDRAGCDSWRAGGGASTPYHSPFDTGYTFRNPEDIFREFFGGLDPFSFEFWDSPFNSDRGGRGHGLRGAFSAGFGEFPAFMEAFSSFNMLGCSGGSHTTFSSTSFGGSSSGSSGFKSVMSSTEMINGHKVTTKRIVENGQERVEVEEDGQLKSVTVNGKEQLKWMDSK
modifications: V5 tag
notes: member of the Hsp40 family, chaperone counteracting protein aggregation; V5-tagged, tet-inducible overexpression

Key:
Assay type in all cases: cell-based, Human
HDQ119 aggregation = assay: Filter trap assay of HDQ119 aggregation in HEK-293 cells cotransfected with EYFP-HDQ119 and DnaJB6 or DnaJB8; settings: for ability of DnaJB8 and DnaJB6 to suppress HDQ119 aggregation in presence of HDAC inhibitor: HEK-293 expressing DnaJB6 or DnaJB8 (Tet on), Trichostatin A 100 and 500 nM, Tubacin 3 and 5 μM, Niltubacin 3 and 5 μM
Procedure: Cell culture and transient infections. Flp-In T-Rex HEK293 cells (Human embryonic kidney 293) stably expressing the tetracycline (tet) repressor were obtained from Invitrogen. Cells were cultured in DMEM (Gibco) supplemented with 10% foetal bovine serum (Sigma) and 100 units/ml penicillin and 100 μg/ml streptomycin (Invitrogen). 5 μg/ml Blasticidine (Sigma) and 100 μg/ml of Zeocin (Invitrogen) were added to the cultures. Cultures were maintained at 37° C. and 5% CO2 in a humidified incubator. For transient transfections, cells were grown to 50-60% confluence in 35 mm-diameter dishes coated with 0.001% of poly-L-lysine (Sigma) and on coated coverslips for confocal microscopy analyses. Cells were transfected with a total of 1 μg of DNA using Lipofectamine (Gibco) according to the manufacturer instructions.
Plasmids. The construction of pHDQ119-EYFP driving the expression of a fragment of exon-1 of huntingtin fused to the enhanced yellow fluorescent protein was previously described (Rujano et al., 2006). The construction of the tetracycline inducible HSP overexpression plasmids is described by Hageman et al. (manuscript in preparation). Briefly, first the V5 sequence containing a Kozak initiation codon and lacking a stop codon was inserted in pcDNA5/FRT/TO by oligo cloning. Subsequently, the coding sequence of each gene was amplified and the PCR products where purified, cleaved with the respective enzymes and ligated in frame in the pcDNA5/FRT/TO-V5 vector cleaved with the same set of enzymes. Presence of the correct insert was verified using DNA sequencing. Expression of the proteins at the expected molecular mass was verified by Western Not analysis against the V5-tag.
(§1) HDAC inhibition. […] Cell extracts prepared 36 hours after treatment were processed for filter trap essays and western Notting as described before. Increase in acetylated tubulin and histones as detected by western Notting was used as test for functionality.
Cell extracts and sample preparation. 24 hours after transfection cells were recovered by trypsinization, pelleted and resuspended in 1 ml of PBS. The cell suspension was centrifuged at 6000 rpm for 5 min at RT and the pellet was resuspended in 75 μl of RIPA buffer containing 2% SDS supplemented with protease inhibitors and sonicated. Protein content was determined with the DC protein essay (Bio-RAD). Western Not samples were prepared at a final concentration of 1 μg/μl in SDS-PAGE loading buffer and heated for 5 min at 100° C. Filter trap samples were prepared at a final concentration of 100 ng/μl, 20 ng/μl and 4 ng/μl in FTA buffer (10 mM Tris-Cl pH 8.0, 150 mM NaCl and 50 mM dithiothreitol)+2% SDS and heated for 5 min at 100° C. Samples were used immediately or kept frozen at −20° C.
Filter trap assay. Filter trap assay was performed based on the protocol described by Carra et al. (2005). Briefly, 10, 2 and 0.4 μg of protein extracts were applied onto a 0.2 μm pore Cellulose Acetate membrane prewashed with FTA+0.1% SDS. Mild suction was applied and the membrane was washed 3 times with the same buffer. […] For quantitative analysis, relative intensity of the bands was measured using GelPro Analyzer 4.5 gel analyzer software.

HDAC-6 = assay: Western blot of acetylated tubulin as test for HDAC inhibitor functionality; settings: control cells or cells expressing DnaJB8
Procedure: as §1
Western blot analysis. […] Proteins were transferred onto nitrocellulose membranes and probed with monoclonal anti-GFP antibody GL-8 (Clontech) at a 1:5000 dilution and monoclonal anti-V5 antibody (Invitrogen) at a 1:5000 dilution. GAPDH was used a loading control and was detected with a monoclonal antibody (RDI Research Diagnostics) at 1:1000 dilution. Blots were incubated with HRP-conjugated anti-mouse secondary antibody (Amersham) at 1:5000 dilution, and visualization was made using enhanced chemiluminescence and Hyperfilm (ECL, Amersham).

DNAJB8 = assay: Mass spectrometry of immunoprecipitated DNAJB8 from TSA-treated cells; settings: TSA-treated cells versus control sample, in-gel digestion
Procedure: Immunoprecipitation. Cells from a 35 mm dish were washed twice with PBS and lysed in 500 μl RIPA (25 mM Tris-HCl pH 7.6, 150 mM NaCl, 1% NP-40, 1% sodium deoxycholate, 0.1% SDS). Lysis was completed by passing the extracts five times through a 21-gauge needle. Subsequently, cell extracts were centrifuged twice at 10,000 G for 10 minutes at 4° C. and the supernatant transferred. Lysates were cleared with agarose A/G beads for 1 hour at 4° C. in a rotator. In the mean time, 0.5 μg V5 anti-body was incubated with […] agarose A/G plus agarose beads (Santa Cruz Biotechnology) and 50 μl RIPA for 1 hour at 4° C. Thereafter, samples were centrifuged at 1000 g for 30 seconds and the supernatant was transferred to a new tube together with 50 μl of the pre-incubated antibody and incubated for 1 more hour in a rotator. Thereafter, the beads were washed twice with RIPA and twice with PBS. After the final wash, 30 μl of RIPA was added together with 30 μl Laemmli sample buffer and boiled for 5 minutes. 10 μl of the extract was loaded and subjected for Western blot analysis.
Mass Spectometry. […]
The digested material was analyzed by nanoLC-MS/MS on an Ultimate 3000 system (Dionex, Amsterdam, The Netherlands) connected on-line with a LTQ-Orbitrap-XL mass spectrometer (ThermoFisher Scientific, San Jose, Calif.). […]

| Molecule | ability of DnaJB8 and DnaJB6 to suppress HDQ119 aggregation in presence of HDAC inhibitor (HDQ119 aggregation) | tubulin acetylation (cellular content of acetylated tubulin) (HDAC-6) | acetylated DNAJB8 peptides (K61, K216, K223) detected by mass spectrometry (DNAJB8) | DnaJB8 and DnaJB6 activity on HDQ119 aggregation (HDQ119 aggregation; 0.5 μM TSA) | HDQ119 aggregation in cells transfected with the empty vector (HDQ119 aggregation; empty plasmid (FRT TO), HEK-293, different concentrations of TSA) | suppression of poly-Q huntingtin (HDQ119) aggregation by overexpressed DnaJB8 variant (HDQ119 aggregation; Tet on, 24 h after cotransfection, filter trap 10, 2 and 0.4 ug protein/slot) |
| --- | --- | --- | --- | --- | --- | --- |
| O=C(CCCCCCC(=O)Nc1ccc([C@H]2O[C@@H](CSc3nc(-c4ccccc4)c(-c4ccccc4)o3)C[C@@H](c3ccc(CO)cc3)O2)cc1)NO [Tubacin] | did not result in inhibition of DnaJB8 and DnaJB6 activity | increases the cellular content of acytelated Tubulin; also recorded: equally effective in increasing tubulin acetylation |  |  |  |  |
| CC(/C=C/C(=O)NO)=C\[C@@H](C)C(=O)c1ccc(N(C)C)cc1 [TSA, Trichostatin A] | but not after HDAC inhibition with TSA; also recorded: stronly reduced; also recorded: concentration dependent loss of the ability of DnaJB8 and DnaJB6 to reduce HQ119 aggregation | increases the cellular content of acytelated Tubulin; also recorded: equally effective in increasing tubulin acetylation | 3 peaks in the TSA-treated samples that were absent in the control sample | completely annihilated DnaJB8 and DnaJB6 activity | slightly enhanced HDQ119 aggregation |  |
| B1 |  |  |  |  |  | substantially suppressed aggregation of poly-Q huntingtin |
